# Patent US11377442B2, “Small molecule agonists and antagonists of NR2F6 activity” (ZANDER THERAPEUTICS, INC., priority 2016, dated 2022)
# Biological target: T1, NR2F6 (Homo sapiens, UniProt P10588)
# T1 construct: expressed in transfected cells; also transient transfection
# T1 sequence (P10588 1-404): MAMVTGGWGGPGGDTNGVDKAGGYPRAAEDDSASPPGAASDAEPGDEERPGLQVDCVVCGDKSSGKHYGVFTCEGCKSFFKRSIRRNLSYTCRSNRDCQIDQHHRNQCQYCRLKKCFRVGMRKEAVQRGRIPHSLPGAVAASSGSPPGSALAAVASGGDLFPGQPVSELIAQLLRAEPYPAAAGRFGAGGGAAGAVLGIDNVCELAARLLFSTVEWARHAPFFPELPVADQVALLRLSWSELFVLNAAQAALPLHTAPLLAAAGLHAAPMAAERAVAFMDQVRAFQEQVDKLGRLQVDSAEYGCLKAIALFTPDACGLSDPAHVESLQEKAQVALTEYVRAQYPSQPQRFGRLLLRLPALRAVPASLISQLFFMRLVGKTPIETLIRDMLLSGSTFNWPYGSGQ
# Assay: NR2F6 agonist screening, Firefly signal cmpd/DMSO
# Assay type: cell-based
# Settings: for Firefly/Renilla (NR2F6 stable, clone F4): ratio Firefly/Renilla; for Firefly, NR2F6 stable (clone F4)/pGL4: ratio of Firefly in NR2F6 stable clone F4 to pGL4
# [1] = C11 analogs follow set (Tables 2-10)
Compound,"Firefly, cmpd/DMSO repeat 1 (Table 9)","Firefly, cmpd/DMSO repeat 2 (Table 9)","Firefly, cmpd/DMSO repeat 1 [1]","Firefly, cmpd/DMSO repeat 2 [1]",further results
COc1cccc2cc(S(=O)(=O)c3ccc(Cl)c(Cl)c3)c(=O)oc12 [Compound C245],1.9,1.3,,,
CCOc1cccc2cc(S(=O)(=O)c3ccc(Cl)c(Cl)c3)c(=O)oc12 [Compound C246],7.4,6.5,,,
COc1ccc(S(=O)(=O)c2cc3cccc(OC)c3oc2=O)cc1OC [Compound C247],2.2,1.6,,,
CCOc1cccc2cc(S(=O)(=O)c3ccc(OC)c(OC)c3)c(=O)oc12 [Compound C248],8.6,4.3,,,"Firefly/Renilla (NR2F6 stable, clone F4) (Table 12): 2.8; Firefly, NR2F6 stable (clone F4)/pGL4 (Table 12): 4.6; Firefly, cmpd/DMSO repeat 1 (Table 12): 8.6; Firefly, cmpd/DMSO repeat 2 (Table 12): 4.3"
COc1ccc(OC)c(S(=O)(=O)c2cc3cccc(OC)c3oc2=O)c1 [Compound C249],1.4,1.5,,,
COc1cccc2cc(S(=O)(=O)c3ccc(F)c(Cl)c3)c(=O)oc12 [Compound C250],1.2,1.8,,,
CCOc1cccc2cc(S(=O)(=O)c3ccc(F)c(Cl)c3)c(=O)oc12 [Compound C251],2.1,1.9,,,
CCOc1ccc(S(=O)(=O)c2cc3cccc(OCC)c3oc2=O)cc1 [Compound C252],3.2,2.4,,,
COc1cccc2cc(S(=O)(=O)c3ccccc3F)c(=O)oc12 [Compound C253],2.5,2.7,,,
CCOc1cccc2cc(S(=O)(=O)c3ccccc3F)c(=O)oc12 [Compound C254],7.6,5.1,,,"Firefly/Renilla (NR2F6 stable, clone F4) (Table 12): 2.4; Firefly, NR2F6 stable (clone F4)/pGL4 (Table 12): 4.4; Firefly, cmpd/DMSO repeat 1 (Table 12): 7.6; Firefly, cmpd/DMSO repeat 2 (Table 12): 5.1"
COc1cccc2cc(S(=O)(=O)c3cccc(Cl)c3)c(=O)oc12 [Compound C255],1.5,1.5,,,
CCOc1cccc2cc(S(=O)(=O)c3cccc(Cl)c3)c(=O)oc12 [Compound C256],11.5,7.9,,,"Firefly/Renilla (NR2F6 stable, clone F4) (Table 12): 2.3; Firefly, NR2F6 stable (clone F4)/pGL4 (Table 12): 4.5; Firefly, cmpd/DMSO repeat 1 (Table 12): 11.5; Firefly, cmpd/DMSO repeat 2 (Table 12): 7.9"
COc1cccc2cc(S(=O)(=O)c3ccc(F)c(C)c3)c(=O)oc12 [Compound C257],2.1,1.6,,,
CCOc1cccc2cc(S(=O)(=O)c3ccc(F)c(C)c3)c(=O)oc12 [Compound C258],1.5,1.8,,,
COc1cccc(S(=O)(=O)c2cc3ccc(OC)cc3oc2=O)c1 [Compound C259],,,1.3,1.9,
COc1ccc2cc(S(=O)(=O)c3cc(C)cc(C)c3)c(=O)oc2c1 [Compound C260],,,1.0,1.0,
COc1ccc2cc(S(=O)(=O)c3ccc(C)c(Cl)c3)c(=O)oc2c1 [Compound C261],,,2.0,1.4,
COc1ccc2cc(S(=O)(=O)c3cc(F)cc(F)c3)c(=O)oc2c1 [Compound C262],,,1.8,2.2,

Compound,"Firefly, cmpd/DMSO repeat 1 (Table 9)","Firefly, cmpd/DMSO repeat 2 (Table 9)","Firefly, cmpd/DMSO repeat 1 [1]","Firefly, cmpd/DMSO repeat 2 [1]",further results
COc1ccc2cc(S(=O)(=O)c3cccc(C#N)c3)c(=O)oc2c1 [Compound C263],,,1.8,1.7,
COc1ccc2cc(S(=O)(=O)c3ccccc3)c(=O)oc2c1 [Compound C264],,,1.1,0.8,
COc1ccc2cc(S(=O)(=O)c3ccc(C)cc3)c(=O)oc2c1 [Compound C265],,,1.0,1.3,
COc1ccc(S(=O)(=O)c2cc3ccc(OC)cc3oc2=O)cc1 [Compound C266],,,0.9,1.2,
COc1ccc2cc(S(=O)(=O)c3ccc(Br)cc3)c(=O)oc2c1 [Compound C267],,,1.4,1.7,
COc1ccc2cc(S(=O)(=O)c3ccc(C(C)(C)C)cc3)c(=O)oc2c1 [Compound C268],,,2.8,3.1,
COc1ccc2cc(S(=O)(=O)c3ccc(C(C)C)cc3)c(=O)oc2c1 [Compound C269],,,3.0,3.0,
COc1ccc2cc(S(=O)(=O)c3ccc(C)c(C)c3)c(=O)oc2c1 [Compound C270],,,3.2,3.1,
COc1ccc2cc(S(=O)(=O)c3ccc(Cl)cc3)c(=O)oc2c1 [Compound C271],,,2.2,1.2,
COc1ccc2cc(S(=O)(=O)c3ccc(Cl)c(Cl)c3)c(=O)oc2c1 [Compound C272],,,4.5,3.1,
O=c1oc2cc(O)ccc2cc1S(=O)(=O)c1ccccc1 [Compound C273],,,2.0,1.5,
COc1ccc2cc(S(=O)(=O)c3ccc(OC)c(OC)c3)c(=O)oc2c1 [Compound C274],,,3.3,3.5,
COc1ccc2cc(S(=O)(=O)c3ccc(F)c(Cl)c3)c(=O)oc2c1 [Compound C275],,,2.6,2.5,
O=c1oc2cc(O)ccc2cc1S(=O)(=O)c1ccc(F)c(Cl)c1 [Compound C276],,,1.2,1.3,
CCN(CC)c1ccc2cc(S(=O)(=O)c3ccc(C)cc3)c(=O)oc2c1 [Compound C277],,,3.4,2.9,
CCN(CC)c1ccc2cc(S(=O)(=O)c3ccc(Br)cc3)c(=O)oc2c1 [Compound C278],,,2.4,3.0,
CCN(CC)c1ccc2cc(S(=O)(=O)c3ccc(Cl)cc3)c(=O)oc2c1 [Compound C279],,,3.9,2.1,
